From DBAASP
Values after ≈ are worked out from the molar mass of the structure shown.

What was measured:
Assay in all cases: ≥ marks a high value that may be exact or a test limit, other limits are often not marked, values filed in µg/mL are converted to µM
[1] = tested on: Candida albicans NCPF 1467
[2] = tested on: Escherichia coli NCTC 10418
[3] = tested on: Staphylococcus aureus ATCC 12493
[4] = tested on: Staphylococcus aureus NCTC 10788
[5] = tested on: Enterococcus faecalis ATCC 29212
[6] = tested on: Escherichia coli ATCC 25922
Escherichia coli ML-35p = tested on: Escherichia coli ML-35p
[7] = tested on: Pseudomonas aeruginosa ATCC 27853
[8] = tested on: Staphylococcus aureus ATCC 25923
[9] = tested on: Staphylococcus aureus ATCC BAA-44
[10] = tested on: Escherichia coli ATCC 11775
[11] = tested on: Escherichia coli ATCC 35218
[12] = tested on: Salmonella enterica subsp. enterica serovar Typhi Vi+
[13] = tested on: Salmonella enterica subsp. enterica serovar Typhimurium ATCC 14028
Acinetobacter baumannii = tested on: Acinetobacter baumannii
[14] = tested on: Bacillus subtilis CGMCC 1.3376
[15] = tested on: Escherichia coli CGMCC 1.8732
[16] = tested on: Klebsiella pneumoniae CGMCC 1.1736
[17] = tested on: Pseudomonas aeruginosa CGMCC 1.2421
[18] = tested on: Staphylococcus aureus CGMCC 1.8721
[19] = tested on: Staphylococcus epidermidis CGMCC 1.4260
[20] = tested on: Acinetobacter baumannii Q12-0809
[21] = tested on: Acinetobacter baumannii Q12-0867
[22] = tested on: Acinetobacter baumannii Q13-0717
[23] = tested on: Campylobacter jejuni NCTC 11351
Campylobacter jejuni = tested on: Campylobacter jejuni
[24] = tested on: Enterococcus faecalis JH-2-2
Escherichia coli K-12 = tested on: Escherichia coli K-12
Escherichia coli = tested on: Escherichia coli
[25] = tested on: Klebsiella pneumoniae ATCC 700603
[26] = tested on: Klebsiella pneumoniae NCTC 13442
[27] = tested on: Klebsiella pneumoniae Q14-0095
[28] = tested on: Klebsiella pneumoniae Q14-0285
[29] = tested on: Listeria monocytogenes NCTC 11994
[30] = tested on: Pseudomonas aeruginosa PAO1
[31] = tested on: Pseudomonas aeruginosa Q12-0581
[32] = tested on: Pseudomonas aeruginosa Q14-0208
[33] = tested on: Pseudomonas aeruginosa Q14-0890
[34] = tested on: Salmonella typhimurium SL1344
[35] = tested on: Staphylococcus aureus ATCC 29213
[36] = tested on: Staphylococcus aureus MRSA-15
[37] = tested on: Staphylococcus aureus NCTC 12493
[38] = tested on: Staphylococcus aureus Q14-0320
[39] = tested on: Staphylococcus aureus RN4220
Klebsiella pneumoniae = tested on: Klebsiella pneumoniae
[40] = tested on: Pseudomonas aeruginosa PA-W14
[41] = tested on: Pseudomonas aeruginosa PA-W1
[42] = tested on: Staphylococcus aureus NCTC 8325-4
Staphylococcus aureus = tested on: Staphylococcus aureus

SMILES: CC(C)C[C@H](NC(=O)[C@H](CC(C)C)NC(=O)[C@H](CC(C)C)NC(=O)[C@@H]1CCCN1C(=O)[C@H](CC(C)C)NC(=O)[C@@H](N)Cc1ccccc1)C(=O)N[C@@H](C)C(=O)NCC(=O)N[C@@H](CC(C)C)C(=O)N1CCC[C@H]1C(=O)N[C@@H](CO)C(=O)N[C@@H](Cc1ccccc1)C(=O)N[C@@H](CC(C)C)C(=O)N[C@H]1CSSC[C@@H](C(=O)O)NC(=O)[C@H](CCCCN)NC(=O)[C@H](CCCCN)NC(=O)[C@H](Cc2ccccc2)NC(=O)[C@H](C(C)C)NC(=O)[C@H](CC(C)C)NC1=O [FLPLLLAGLPSFLCLVFKKC]
- MIC [1]: ≥ 512 µM
- MIC [2]: ≥ 512 µM
- MIC [3]: ≥ 512 µM
- MIC [4]: ≥ 128 µM

SMILES: CC[C@H](C)[C@H](NC(=O)[C@H](CCCCN)NC(=O)[C@H](CC(C)C)NC(=O)[C@H](CC(C)C)NC(=O)[C@@H]1CCCN1C(=O)CNC(=O)[C@H](CC(C)C)NC(=O)[C@H](CCCCN)NC(=O)CN)C(=O)N[C@@H](C)C(=O)N[C@@H](C)C(=O)N[C@@H](CCCCN)C(=O)N[C@H](C(=O)NCC(=O)N[C@@H](CO)C(=O)N[C@@H](CCCCN)C(=O)N[C@@H](CC(C)C)C(=O)N[C@@H](CC(C)C)C(N)=O)C(C)C [GKLGPLLKIAAKVGSKLL]
- MIC [5]: 50 µM (≈ 90.3 µg/mL)
- MIC [6]: 6.3 µM (≈ 11.4 µg/mL)
- MIC (Escherichia coli ML-35p): 1.6 µM (≈ 2.89 µg/mL)
- MIC [7]: 3 µM (≈ 5.42 µg/mL)
- MIC [8]: 3 µM (≈ 5.42 µg/mL)
- MIC [9]: 6.3 µM (≈ 11.4 µg/mL)

SMILES: CC[C@H](C)[C@H](NC(=O)[C@@H]1CCCN1C(=O)[C@H](CCCN=C(N)N)NC(=O)[C@@H]1CCCN1C(=O)[C@H](Cc1cnc[nH]1)NC(=O)[C@H](CO)NC(=O)[C@H](CO)NC(=O)[C@@H]1CCCN1C(=O)[C@H](CCCN=C(N)N)NC(=O)[C@@H]1CCCN1C(=O)[C@H](CO)NC(=O)[C@H](Cc1ccc(O)cc1)NC(=O)[C@@H]1CCCN1C(=O)[C@H](CCCN=C(N)N)NC(=O)[C@@H]1CCCN1C(=O)[C@H](CCCCN)NC(=O)CN)C(=O)N[C@@H](CCCN=C(N)N)C(=O)N[C@H](C(=O)O)C(C)C [GKPRPYSPRPSSHPRPIRV]
- MIC [10]: 0.6 µM (≈ 1.31 µg/mL)
- MIC [6]: 0.4 µM (≈ 0.874 µg/mL)
- MIC [11]: 0.2 µM (≈ 0.437 µg/mL)
- MIC [12]: 3 µM (≈ 6.55 µg/mL)
- MIC [13]: 2 µM (≈ 4.37 µg/mL)

SMILES: CC[C@H](C)[C@H](NC(=O)[C@H](CO)NC(=O)CNC(=O)[C@@H](NC(=O)[C@@H](N)CCCN=C(N)N)[C@@H](C)CC)C(=O)N[C@@H](CC(C)C)C(=O)NCC(=O)N[C@@H](CCCN=C(N)N)C(=O)N[C@@H](CC(C)C)C(=O)N[C@@H](C)C(=O)N[C@@H](CCCCN)C(=O)NCC(=O)N[C@@H](CC(C)C)C(=O)N1CCC[C@H]1C(=O)N[C@H](C(=O)N[C@@H](CC(C)C)C(=O)N[C@@H](CCCCN)C(=O)N[C@@H](CO)C(=O)N[C@@H](Cc1c[nH]c2ccccc12)C(=O)N[C@H](C(=O)N[C@@H](CCCCN)C(=O)N[C@@H](CC(N)=O)C(=O)N[C@@H](CCCN=C(N)N)C(N)=O)[C@@H](C)CC)[C@@H](C)O [RIGSILGRLAKGLPTLKSWIKNR]
- MIC (Acinetobacter baumannii): 12.5 µM (≈ 32.2 µg/mL)
- MIC [14]: 12.5 µM (≈ 32.2 µg/mL)
- MIC [15]: 12.5 µM (≈ 32.2 µg/mL)
- MIC [16]: 12.5 µM (≈ 32.2 µg/mL)
- MIC [17]: 12.5 µM (≈ 32.2 µg/mL)
- MIC [18]: ≥ 100 µM
- MIC [19]: 6.25 µM (≈ 16.1 µg/mL)

SMILES: CC(C)C[C@H](NC(=O)[C@H](Cc1cnc[nH]1)NC(=O)[C@H](Cc1ccccc1)NC(=O)[C@H](Cc1ccccc1)NC(=O)[C@H](CCCN=C(N)N)NC(=O)[C@H](CCCCN)NC(=O)[C@H](CO)NC(=O)[C@H](CCCN=C(N)N)NC(=O)[C@H](Cc1cnc[nH]1)NC(=O)[C@H](CC(C)C)NC(=O)[C@H](Cc1ccccc1)NC(=O)[C@H](CCCCN)NC(=O)[C@H](CCCN=C(N)N)NC(=O)[C@H](Cc1ccc(O)cc1)NC(=O)CNC(=O)[C@@H](NC(=O)[C@H](Cc1cnc[nH]1)NC(=O)[C@H](CC(C)C)NC(=O)[C@@H](N)C(C)C)[C@@H](C)O)C(=O)N[C@@H](CCCN=C(N)N)C(=O)O [VLHTGYRKFLHRSKRFFHLR]
- MIC [20]: 12.3 µM (≈ 32 µg/mL)
- MIC [21]: 24.6 µM (≈ 64 µg/mL)
- MIC [22]: ≥ 49.2 µM
- MIC [23]: ≥ 49.2 µM
- MIC (Campylobacter jejuni): ≥ 49.2 µM
- MIC [24]: 24.6 µM (≈ 64 µg/mL)
- MIC (Escherichia coli K-12): 24.6 µM (≈ 64 µg/mL)
- MIC (Escherichia coli): > 49.2 µM
- MIC [25]: 49.2 µM (≈ 128 µg/mL)
- MIC [26]: ≥ 49.2 µM
- MIC [27]: ≥ 49.2 µM
- MIC [28]: 24.6 µM (≈ 64 µg/mL)
- MIC [29]: 24.6 µM (≈ 64 µg/mL)
- MIC [7]: > 49.2 µM
- MIC [30]: 197 µM (≈ 512 µg/mL)
- MIC [31]: ≥ 49.2 µM
- MIC [32]: ≥ 49.2 µM
- MIC [33]: 24.6 µM (≈ 64 µg/mL)
- MIC [34]: 12.3 µM (≈ 32 µg/mL)
- MIC [35]: > 49.2 µM
- MIC [36]: ≥ 49.2 µM
- MIC [37]: 12.3 µM (≈ 32 µg/mL)
- MIC [38]: ≥ 49.2 µM
- MIC [39]: ≥ 49.2 µM

SMILES: NCCCC[C@H](NC(=O)[C@H](Cc1c[nH]c2ccccc12)NC(=O)[C@H](Cc1c[nH]c2ccccc12)NC(=O)[C@H](CCCCN)NC(=O)[C@H](CCCCN)NC(=O)[C@H](Cc1c[nH]c2ccccc12)NC(=O)[C@H](Cc1c[nH]c2ccccc12)NC(=O)[C@H](CCCCN)NC(=O)[C@H](CCCCN)NC(=O)[C@@H](N)Cc1c[nH]c2ccccc12)C(N)=O [WKKWWKKWWK]
- MIC (Escherichia coli K-12): 15.6 µM (≈ 24.8 µg/mL)
- MIC (Klebsiella pneumoniae): 62.5 µM (≈ 99.3 µg/mL)
- MIC [40]: ≥ 125 µM
- MIC [41]: 31.3 µM (≈ 49.7 µg/mL)
- MIC [30]: 15.6 µM (≈ 24.8 µg/mL)
- MIC [42]: 15.6 µM (≈ 24.8 µg/mL)
- MIC (Staphylococcus aureus): 15.6 µM (≈ 24.8 µg/mL)
